From patent US20250042911A1, “NOVEL BENZOPYRAN DERIVATIVE AND USE THEREOF” (SPARK BIOPHARMA, INC, priority 2021, published 2025)
pEC50: −log10 of the molar value. Counter-ions that a name gives are not always drawn.

Key:
[1] = system: melanoma cells (B316F10); assay: Tumor growth inhibition in C57BL/6 syngeneic mouse model implanted with melanoma cells; format: in vivo; settings: 20 mg/kg orally once a day for 9 or 10 days, female C57BL/6 mice with implanted melanoma cells, tumor volume vs control group; for inhibition in vivo at 20 mg/kg: Mus musculus, po, read-out: TGI (%)
Procedure: The tumor growth inhibition effect of benzopyrene derivatives was evaluated in a C57BL/6 mouse tumor model (syngeneic mouse model) in which melanoma cells (B316F10) derived from C57BL/6 mice are implanted.
After the quarantine and acclimation period was over, a cell suspension prepared with 5×10^5 cells/0.1 mL PBS was filled into a disposable syringe and administered in an amount of 0.1 mL PBS/head subcutaneously to the right back of healthy test animals (female C57BL/6, 7 weeks old) for implantation. After cell line implantation, general symptoms were observed once daily during the engraftment and growth period. Animals with no abnormalities in their health and whose tumor volume reached 50 to 100 mm^3 when measured with a digital caliper were selected. Then, based on tumor volume and body weight, the groups were separated so that the average tumor volume per group was 70 to 100 mm^3. Ten (10) animals were separated per group, and 20 mg/kg of benzopyran derivatives were administered orally once a day for 9 or 10 days. Tumor volume was measured once every 2 or 3 days.
The measured tumor volume of the test compound administered groups was compared with that of the control group and is represented in Table 2 as the tumor growth inhibition (TGI, %).

[2] = system: human M2 macrophages; assay: Inhibition of human M2 macrophage activity, hCCL22 in culture supernatant by ELISA; format: cell-based; settings: hCCL22 secretion, THP-1 derived M2-like macrophages, compound present during 72 hours of differentiation
Procedure, shortened: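 THP-1 monocytes were differentiated with 100 ng/mL PMA for 24 h, then polarized with 25 ng/mL hIL-4 plus 25 ng/mL hIL-13 for 72 h. Compounds were present throughout the 72 h polarization. CCL22 in the supernatant was quantified by ELISA to give inhibition or EC50.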

Row | SMILES | inhibition in vivo at 20 mg/kg [1] [%] | pEC50 [2] | TGI (%) ([1]; phosphate)
1 | CC1(C)Oc2cc(N3CCCC3)ccc2C2C1=CCn1c(=O)n(-c3ccc(C(=O)O)cc3)c(=O)n12 (centres unmarked) [Example 44, 4-(7,7-dimethyl-1,3-dioxo-10-(pyrrolidin-1-yl)-5,12b-dihydro-1H,7H-chromeno[4,3-c][1,2,4]triazolo[1,2-a]pyridazin-2(3H)-yl)benzoic acid] | 25 to 66 | 5.02 | 
2 | CC(=O)c1ccc(-n2c(=O)n3n(c2=O)C2C(=CC3)C(C)(C)Oc3cc(OC(=O)N(C)C)ccc32)cc1 (centres unmarked) [Example 62, 2-(4-acetylphenyl)-7,7-dimethyl-1,3-dioxo-2,3,5,12b-tetrahydro-1H,7H-chromeno[4,3-c][1,2,4]triazolo[1,2-a]pyridazin-10-yl dimethylcarbamate] | 32.3 | 4.38 | 
3 | CC(=O)c1ccc(-n2c(=O)n3n(c2=O)C2C(=CC3)C(C)(C)Oc3cc(OC(=O)CN(C)C)ccc32)cc1 (centres unmarked) [Example 72, 2-(4-acetylphenyl)-7,7-dimethyl-1,3-dioxo-2,3,5,12b-tetrahydro-1H,7H-chromeno[4,3-c][1,2,4]triazolo[1,2-a]pyridazin-10-yl dimethylglycinate hydrochloride] | 25 to 66 | 5.33 | 
4 | CC(=O)C(=O)N1CCN(C(=O)Oc2ccc3c(c2)OC(C)(C)C2=CCn4c(=O)n(-c5ccc(C(C)=O)cc5)c(=O)n4C23)CC1 (centres unmarked) [Example 68, 2-(4-acetylphenyl)-7,7-dimethyl-1,3-dioxo-2,3,5,12b-tetrahydro-1H,7H-chromeno[4,3-c][1,2,4]triazolo[1,2-a]pyridazin-10-yl 4-(2-oxopropanoyl)piperazine-1-carboxylate] | 25 to 66 | 4.13 | 
5 | CCN(c1ccc2c(c1)OC(C)(C)C1=CCn3c(=O)n(-c4ccc(C(C)=O)cc4)c(=O)n3C12)C(C)C (centres unmarked) [Example 46, 2-(4-acetylphenyl)-10-(ethyl(isopropyl)amino)-7,7-dimethyl-5,12b-dihydro-1H,7H-chromeno[4,3-c][1,2,4]triazolo[1,2-a]pyridazine-1,3(2H)-dione] | 25 to 66 | 5.15 | 
6 | CC(=O)c1ccc(-n2c(=O)n3n(c2=O)C2C(=CC3)C(C)(C)Oc3cc(OP(=O)(O)O)ccc32)cc1 (centres unmarked) [Example 70, disodium 2-(4-acetylphenyl)-7,7-dimethyl-1,3-dioxo-2,3,5,12b-tetrahydro-1H,7H-chromeno[4,3-c][1,2,4]triazolo[1,2-a]pyridazin-10-yl phosphate] |  | 5.03 | 26.2
7 | CC(=O)c1ccc(-n2c(=O)n3n(c2=O)C2C(=CC3)C(C)(C)Oc3cc(OC(=O)N4CCN(C(=O)[C@@H]5CCCN5)CC4)ccc32)cc1 (stereo partly drawn) [Example 82, 2-(4-acetylphenyl)-7,7-dimethyl-1,3-dioxo-2,3,5,12b-tetrahydro-1H,7H-chromeno[4,3-c][1,2,4]triazolo[1,2-a]pyridazin-10-yl 4-(L-prolyl)piperazine-1-carboxylate hydrochloride] | 66.3 | 4.16 | 
